Patent US8461124B2, “Five- and six-membered conformationally locked 2′,4′-carbocyclic ribo-thymidines for the treatment of infections and cancer” (priority 2007, dated 2013)

Legend:
[1] = Stability of 5′-32P-labeled AONs in human blood serum (PAGE autoradiography); format: in vitro ADME
Description: FIG. 4. Autoradiograms of 20% denaturing PAGE showing degradation patterns of 5′-^32P-labeled AONs in human blood serum (Table 1 for all AON sequences). Inset A: AON 1 and LNA-modified AONs 2-5. Inset B: Carbocyclic-LNA-modified AONs 6-9. Inset C: Carbocyclic-ENA-modified AONs 10-13 and Inset D: aza-ENA-modified AONs 14-17. Time points are taken after 0, ½, 1 h, 2 h, 5 h, 7 h, 9 h, 12 h, for AONs 1-5 and 0 h, 6 h, 8 h, 12 h, 24 h, 36 h and 48 h of incubation for AONs 6-17 at 21° C. (see Experimental Section for details).
Modified sequences (Table 1), ^32P-labeled at 5′-ends, were digested in human blood serum at 21° C. as shown in the PAGE autoradiograms (Insets A, B, C and D in FIG. 4). In order to understand
AONs (6 μL) at 2 μM concentration (5′-end ^32P labeled with specific activity 80 000 cpm) were incubated in […] of human blood serum (male AB) at 21° C. (total reaction volume was 36 μL) and the experiments were repeated twice up to 48 h. Aliquots (3 μL) were taken at 0, 30 min, 1, 2, 5, 7, 8, 9, 12, 24, 36, 48 h and quenched with 7 μL of solution containing 8 M urea and 50 mM EDTA, resolved in 20% polyacrylamide denaturing (7 M urea) gel electrophoresis and visualized by autoradiography. […] Since no new prominent cleavage products were found toward the later time points, we considered those prominent stable initial fragments as 100% during the last time points (12-48 h).

complementary DNA = experiment: Thermal denaturation (UV melting) of AON duplexes with complementary DNA; format: binding; conditions: for Tm/° C. with DNA: 1 μM of each strand, medium salt buffer pH 7.5, average of at least three runs; for ΔTm* (Tm relative to DNA compliment): relative to native AON 1/DNA duplex
complementary RNA = experiment: Thermal denaturation (UV melting) of AON duplexes with complementary RNA; format: binding; conditions: for Tm/° C. with RNA: 1 μM of each strand, medium salt buffer pH 7.5, average of at least three runs; for ΔTm (Tm relative to RNA compliment): relative to native AON 1/RNA duplex
Description: All 17 modified AONs have been purified as a single component on PAGE (20% polyacrylamide with 7 Molar urea), extracted with 0.3 M NaOAc and desalted with C-18 reverse phase cartridge to give AONs in >99% purity and correct mass have been obtained by MALDI-TOF mass spectroscopy for each one them (Table 1). Determination of the Tm of the AON/RNA hybrids was carried out in the following buffer: 57 mM Tris-HCl (pH 7.5), 57 mM KCl, 1 mM MgCl2. Absorbance was monitored at 260 nm in the temperature range from 20° C. to 90° C. using UV spectrophotometer equipped with Peltier temperature programmer with the heating rate of 1° C. per minute. Prior to measurements, the samples (1 μM of AON and 1 μM RNA mixture) were pre-annealed by heating to 90° C. for 5 min followed by slow cooling to 4° C. and 30 min equilibration at this temperature and are average of at least three independent runs.

E. coli RNase H1 = E. coli RNase H1 (Escherichia coli, UniProt P0A7Y4); conditions: AON/RNA duplex
E. coli RNase H1, sequence (P0A7Y4 whole entry): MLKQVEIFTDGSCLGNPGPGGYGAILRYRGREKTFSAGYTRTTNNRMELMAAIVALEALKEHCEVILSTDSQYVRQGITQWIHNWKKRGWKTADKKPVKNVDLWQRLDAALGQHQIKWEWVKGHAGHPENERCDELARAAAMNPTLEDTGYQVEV
Description: Autoradiograms of 20% denaturing PAGE, showing the cleavage kinetics of 5′-^32P-labeled target RNA by E. coli RNase H1 in the AONs 1-17 after 2, 5, 10, 15, 30 and 60 min of incubation. Conditions of cleavage reactions: RNA (0.8 μM) and AONs (4 μM) in buffer containing 20 nM Tris-HCL (pH 8.0), 20 mM KCL, 10 mM Mgcl2, and 0.1 mM DTT at 21° C.; 0.04 U of RNase H1. Inset A: LNA-T modified AONs 2-5 with native AON 1. Inset B: carbocyclic-LNA-T modified AONs 6-9. Inset C: carbocyclic-ENA-T modified AONs 10-13 with native AON 1. Inset D: aza-ENA-T modified AONs 14-17 with native AON 1. The graphs in Insets E, F, G, and H show the kinetics of RNase H1 mediated cleavage of the target RNA, the remaining fraction of target RNA is measured densitometrically and plotted as a function of time fitted to a single exponential decay function. Inset E: AON 1 with AONs 2-5. Inset F: for AON 1 with AONs 6-9. Inset G: AON 1 and AONs 10-13. Inset H: AON 1 and AONs 14-17.
The cleavage rates of RNase H digestion were determined by densitometric quantification of gels and subsequently by plotting the uncleaved RNA fraction as a function of time (Insets E-H in FIG. 6). The reaction rates were obtained by fitting the degradation curves to single-exponential decay functions.

3′-d(CTT(5-carbo)CTTTTTTACTTC)-5′ (antisense CTTCTTTTTTACTTC; carbocyclic-LNA-T at position 3 from 3'-end, chemistry not fully specified) [AON 6, carbocyclic-LNA-T modified AON, position 3 from 3′-end]
time to give the n−1 fragment (hydrolysis of 3′-terminal nucleotide) ([1]; human blood serum, 21° C.): 2 h
Tm/° C. with DNA (complementary DNA): 45 °C
ΔTm* (Tm relative to DNA compliment) (complementary DNA): 0.00 °C
Tm/° C. with RNA (complementary RNA): 47.5 °C
ΔTm (Tm relative to RNA compliment) (complementary RNA): +3.5 °C

3′-d(CTT(6-carbo)CTTTTTTACTTC)-5′ (antisense CTTCTTTTTTACTTC; carbocyclic-ENA-T at position 3 from 3'-end, chemistry not fully specified) [AON 10, carbocyclic-ENA-T modified AON, position 3 from 3′-end]
time to give the n−1 fragment (hydrolysis of 3′-terminal nucleotide) ([1]; human blood serum, 21° C.): 2 h
Tm/° C. with DNA (complementary DNA): 43.5 °C
ΔTm* (Tm relative to DNA compliment) (complementary DNA): −1.5 °C
Tm/° C. with RNA (complementary RNA): 45.5 °C
ΔTm (Tm relative to RNA compliment) (complementary RNA): +1.5 °C

3′-d(CTT(LNA)CTTTTTTACTTC)-5′ (antisense CTTCTTTTTTACTTC; LNA-T at position 3 from 3'-end, chemistry not fully specified) [AON 2, LNA-T modified AON, position 3 from 3′-end]
serum stability compared with native AON 1 ([1]; human blood serum cleavage pattern): only slightly more stable than the native counterpart
time to full degradation ([1]; human blood serum, 21° C.): 9 h
time to give the n−1 fragment ([1]; human blood serum, 21° C.): 35 min
time to give the n−2 fragment as major product ([1]; human blood serum, 21° C.): 5 h
Tm/° C. with DNA (complementary DNA): 47 °C
ΔTm* (Tm relative to DNA compliment) (complementary DNA): +2 °C
Tm/° C. with RNA (complementary RNA): 48 °C
ΔTm (Tm relative to RNA compliment) (complementary RNA): +4 °C

3′-d(CTT(aza-ENA)CTTTTTTACTTC)-5′ (antisense CTTCTTTTTTACTTC; aza-ENA-T at position 3 from 3'-end, chemistry not fully specified) [AON 14, aza-ENA-T modified AON, position 3 from 3′-end]
time to give the n−1 fragment (hydrolysis of 3′-terminal nucleotide) ([1]; human blood serum, 21° C.): ≤ 5 h
fraction of n−1 fragment ([1]; human blood serum, after 12 h): ca. 65%
fraction of n−2 fragment ([1]; human blood serum, after 12 h): ~35%
fraction of n−1 fragment ([1]; human blood serum, within 5 h): ca. 85%
fraction of n−2 fragment ([1]; human blood serum, within 5 h): ca. 15%

3′-d(CTTCT T(LNA)TTTTACTTC)-5′ [AON 3]
Tm/° C. with DNA (complementary DNA): 46.5 °C
ΔTm* (Tm relative to DNA compliment) (complementary DNA): +1.5 °C
Tm/° C. with RNA (complementary RNA): 49 °C
ΔTm (Tm relative to RNA compliment) (complementary RNA): +5 °C

3′-d(CTTCTT(5-carbo)TTTTACTTC)-5′ (antisense CTTCTTTTTTACTTC; carbocyclic-LNA-T at position 6 from 3'-end, chemistry not fully specified) [AON 7, carbocyclic-LNA-T modified AON, position 6 from 3′-end]
Tm/° C. with DNA (complementary DNA): 44 °C
ΔTm* (Tm relative to DNA compliment) (complementary DNA): −1.00 °C
Tm/° C. with RNA (complementary RNA): 49 °C
ΔTm (Tm relative to RNA compliment) (complementary RNA): +5 °C

3′-d(CTTCTT(6-carbo)TTTTACTTC)-5′ [AON 11]
Tm/° C. with DNA (complementary DNA): 39.5 °C
ΔTm* (Tm relative to DNA compliment) (complementary DNA): −5.5 °C
Tm/° C. with RNA (complementary RNA): 45.5 °C
ΔTm (Tm relative to RNA compliment) (complementary RNA): +1.5 °C

3′-d(CTTCTT(aza-ENA)TTTTACTTC)-5′ (antisense CTTCTTTTTTACTTC; aza-ENA-T at position 6 from 3'-end, chemistry not fully specified) [AON 15, aza-ENA-T modified AON, position 6 from 3′-end]
Tm/° C. with DNA (complementary DNA): 42.5 °C
ΔTm* (Tm relative to DNA compliment) (complementary DNA): −2.5 °C
Tm/° C. with RNA (complementary RNA): 46.5 °C
ΔTm (Tm relative to RNA compliment) (complementary RNA): +2.5 °C

3′-d(CTTCTTTT(5-carbo)TTACTTC)-5′ (antisense CTTCTTTTTTACTTC; carbocyclic-LNA-T at position 8 from 3'-end, chemistry not fully specified) [AON 8, carbocyclic-LNA-T modified AON, position 8 from 3′-end]
Tm/° C. with DNA (complementary DNA): 44 °C
ΔTm* (Tm relative to DNA compliment) (complementary DNA): −1.00 °C
Tm/° C. with RNA (complementary RNA): 48 °C
ΔTm (Tm relative to RNA compliment) (complementary RNA): +4 °C

3′-d(CTTCTTTT(6-carbo)TTACTTC)-5′ [AON 12]
Tm/° C. with DNA (complementary DNA): 40.0 °C
ΔTm* (Tm relative to DNA compliment) (complementary DNA): −5.0 °C
Tm/° C. with RNA (complementary RNA): 45.5 °C
ΔTm (Tm relative to RNA compliment) (complementary RNA): +1.5 °C

3′-d(CTTCTTTT(LNA)TTACTTC)-5′ (antisense CTTCTTTTTTACTTC; LNA-T at position 8 from 3'-end, chemistry not fully specified) [AON 4, LNA-T modified AON, position 8 from 3′-end]
Tm/° C. with DNA (complementary DNA): 45.0 °C
ΔTm* (Tm relative to DNA compliment) (complementary DNA): 0.0 °C
Tm/° C. with RNA (complementary RNA): 49 °C
ΔTm (Tm relative to RNA compliment) (complementary RNA): +5 °C

3′-d(CTTCTTTT(aza-ENA)TTACTTC)-5′ (antisense CTTCTTTTTTACTTC; aza-ENA-T at position 8 from 3'-end, chemistry not fully specified) [AON 16, aza-ENA-T modified AON, position 8 from 3′-end]
Tm/° C. with DNA (complementary DNA): 42 °C
ΔTm* (Tm relative to DNA compliment) (complementary DNA): −3 °C
Tm/° C. with RNA (complementary RNA): 47.5 °C
ΔTm (Tm relative to RNA compliment) (complementary RNA): +3.5 °C

3′-d(CTTCTTTTTT(5-carbo)ACTTC)-5′ (antisense CTTCTTTTTTACTTC; carbocyclic-LNA-T at position 10 from 3'-end, chemistry not fully specified) [AON 9, carbocyclic-LNA-T modified AON, position 10 from 3′-end]
Tm/° C. with DNA (complementary DNA): 43.0 °C
ΔTm* (Tm relative to DNA compliment) (complementary DNA): −2.00 °C
Tm/° C. with RNA (complementary RNA): 47.5 °C
ΔTm (Tm relative to RNA compliment) (complementary RNA): +3.5 °C

3′-d(CTTCTTTTTT(6-carbo)ACTTC)-5′ [AON 13]
Tm/° C. with DNA (complementary DNA): 39.5 °C
ΔTm* (Tm relative to DNA compliment) (complementary DNA): −5.5 °C
Tm/° C. with RNA (complementary RNA): 45.5 °C
ΔTm (Tm relative to RNA compliment) (complementary RNA): +1.5 °C

3′-d(CTTCTTTTTT(LNA)ACTTC)-5′ (antisense CTTCTTTTTTACTTC; LNA-T at position 10 from 3'-end, chemistry not fully specified) [AON 5, LNA-T modified AON, position 10 from 3′-end]
Tm/° C. with DNA (complementary DNA): 46 °C
ΔTm* (Tm relative to DNA compliment) (complementary DNA): +1 °C
Tm/° C. with RNA (complementary RNA): 49 °C
ΔTm (Tm relative to RNA compliment) (complementary RNA): +5 °C

3′-d(CTTCTTTTTT(aza-ENA)ACTTC)-5′ (antisense CTTCTTTTTTACTTC; aza-ENA-T at position 10 from 3'-end, chemistry not fully specified) [AON 17, aza-ENA-T modified AON, position 10 from 3′-end]
Tm/° C. with DNA (complementary DNA): 42 °C
ΔTm* (Tm relative to DNA compliment) (complementary DNA): −3 °C
Tm/° C. with RNA (complementary RNA): 48 °C
ΔTm (Tm relative to RNA compliment) (complementary RNA): +4 °C

3′-d(CTTCTTTTTTACTTC)-5′ (DNA, backbone not given here) [AON 1]
time to full degradation ([1]; human blood serum, 21° C.): ≤ 12 h
Tm/° C. with DNA (complementary DNA): 45 °C
Tm/° C. with RNA (complementary RNA): 44 °C
RNase H cleavage pattern of the RNA compliment (E. coli RNase H1): cleaved quite randomly with a slight preference after A-8 position

(1R,3R,4R,5R,7S)-7-(2-(Cyanoethoxy-(diisopropylamino)-phosphinoxy)-1-(4,4′-dimethoxytrityloxy methyl)-3-(thymin-1-yl)-2-oxa-bicyclo[2.2.1]heptane [Compound 14]
Tm/° C. with DNA (complementary DNA): 44.5 °C
ΔTm* (Tm relative to DNA compliment) (complementary DNA): −0.5 °C
Tm/° C. with RNA (complementary RNA): 48 °C
ΔTm (Tm relative to RNA compliment) (complementary RNA): +4 °C
